Several values for one entry are separate records, joined by “and”; a condition that tells them apart may be missing. Equal values may be shown once. Toxic doses and inconclusive results are not listed.
Tested on: BDF1 mice, P388 leukemia ip, median survival T/C
Assay: NCI In Vivo Anticancer Drug Screen. Data for tumor model P388 Leukemia (intraperitoneal) in B6D2F1 (BDF1) mice
Conditions: endpoint: median survival time, higher = longer survival
In short: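 Compound-treated tumour-bearing mice were compared with vehicle-treated controls. Survival was recorded, and the value is the treated-group measurement divided by the control-group measurement (T/C).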

[1] = dose: 50.0 mg/kg/injection, schedule: Q01DX009 (ip), vehicle: Klucel (hydroxypropylcellulose) (HPC)
[2] = dose: 50.0 mg/kg/injection, schedule: Q01DX009 (ip), vehicle: saline with Tween-80
[3] = dose: 100.0 mg/kg/injection, schedule: Q01DX009 (ip), vehicle: saline with Tween-80
[4] = dose: 200.0 mg/kg/injection, schedule: Q01DX009 (ip), vehicle: saline with Tween-80
[5] = dose: 100.0 mg/kg/injection, schedule: Q01DX009 (ip), vehicle: Klucel (hydroxypropylcellulose) (HPC)
[6] = dose: 200.0 mg/kg/injection, schedule: Q01DX009 (ip), vehicle: Klucel (hydroxypropylcellulose) (HPC)
[7] = dose: 25.0 mg/kg/injection, schedule: Q01DX009 (ip), vehicle: saline
[8] = dose: 50.0 mg/kg/injection, schedule: Q01DX009 (ip), vehicle: saline
[9] = dose: 100.0 mg/kg/injection, schedule: Q04DX003 (ip), vehicle: saline
[10] = dose: 200.0 mg/kg/injection, schedule: Q04DX003 (ip), vehicle: saline

SMILES: Cc1cc(N)c2cc(NC(=O)CCCCCCCCC(=O)Nc3ccc4nc(C)cc(N)c4c3)ccc2n1
- T/C (dose: 5.5 mg/kg/injection, schedule: Q01DX009 (ip), vehicle: Klucel (hydroxypropylcellulose) (HPC)): 108 % of control
- T/C (dose: 8.2 mg/kg/injection, schedule: Q01DX009 (ip), vehicle: Klucel (hydroxypropylcellulose) (HPC)): 121 % of control
- T/C (dose: 8.3 mg/kg/injection, schedule: Q04DX003 (ip), vehicle: Klucel (hydroxypropylcellulose) (HPC)): 91 % of control
- T/C (dose: 12.0 mg/kg/injection, schedule: Q04DX003 (ip), vehicle: Klucel (hydroxypropylcellulose) (HPC)): 104 % of control
- T/C (dose: 45.0 mg/kg/injection, schedule: Q04DX003 (ip), vehicle: Klucel (hydroxypropylcellulose) (HPC)): 150 % of control
- T/C [1]: 186 % of control
- T/C (dose: 80.0 mg/kg/injection, schedule: Q04DX003 (ip), vehicle: Klucel (hydroxypropylcellulose) (HPC)): 168 % of control
- T/C (dose: 100.0 mg/kg/injection, schedule: Q04DX003 (ip), vehicle: other): 172 % of control
- T/C (dose: 120.0 mg/kg/injection, schedule: Q04DX003 (ip), vehicle: Klucel (hydroxypropylcellulose) (HPC)): 172 % of control
- T/C (dose: 180.0 mg/kg/injection, schedule: Q04DX003 (ip), vehicle: Klucel (hydroxypropylcellulose) (HPC)): 177 % of control
- T/C (dose: 200.0 mg/kg/injection, schedule: Q04DX003 (ip), vehicle: Klucel (hydroxypropylcellulose) (HPC)): 150 % of control
- T/C (dose: 200.0 mg/kg/injection, schedule: Q04DX003 (ip), vehicle: other): 181 % of control
- T/C (dose: 264.0 mg/kg/injection, schedule: Q04DX003 (ip), vehicle: Klucel (hydroxypropylcellulose) (HPC)): 227 % of control
- T/C (dose: 400.0 mg/kg/injection, schedule: Q01DX009 (ip), vehicle: Klucel (hydroxypropylcellulose) (HPC)): 160 % of control
- T/C (dose: 400.0 mg/kg/injection, schedule: Q04DX003 (ip), vehicle: Klucel (hydroxypropylcellulose) (HPC)): 261 % of control and 160 % of control
- T/C (dose: 400.0 mg/kg/injection, schedule: Q04DX003 (ip), vehicle: other): 186 % of control

SMILES: CS(=O)(=O)OCCCCOS(C)(=O)=O
- T/C (dose: 6.25 mg/kg/injection, schedule: Q01DX010 (ip), vehicle: saline): 100 % of control and 119 % of control
- T/C (dose: 12.5 mg/kg/injection, schedule: Q01DX009 (ip), vehicle: saline with Tween-80): 113 % of control
- T/C (dose: 12.5 mg/kg/injection, schedule: Q01DX010 (ip), vehicle: saline): 122 % of control
- T/C (dose: 20.0 mg/kg/injection, schedule: Q01DX010 (ip), vehicle: other): 120 % of control
- T/C (dose: 25.0 mg/kg/injection, schedule: Q01DX009 (ip), vehicle: saline with Tween-80): 104 % of control
- T/C (dose: 40.0 mg/kg/injection, schedule: Q01DX010 (ip), vehicle: other): 120 % of control
- T/C [2]: 104 % of control
- T/C (dose: 60.0 mg/kg/injection, schedule: Q01DX010 (ip), vehicle: other): 120 % of control

SMILES: CCOC(=O)C(C1=NC(C)(C)CC(C)O1)C(C[N+](=O)[O-])c1ccccc1 (centres undefined)
- T/C (dose: 50.0 mg/kg/injection, schedule: Q01DX001 (ip), vehicle: saline sonified): 100 % of control
- T/C (dose: 100.0 mg/kg/injection, schedule: Q01DX001 (ip), vehicle: saline sonified): 100 % of control
- T/C (dose: 200.0 mg/kg/injection, schedule: Q01DX001 (ip), vehicle: saline sonified): 100 % of control

SMILES: NC(CSCc1ccccc1)(CSCc1ccccc1)C(=O)O
- T/C (dose: 12.5 mg/kg/injection, schedule: Q01DX009 (ip), vehicle: other): 103 % of control
- T/C (dose: 25.0 mg/kg/injection, schedule: Q01DX009 (ip), vehicle: other): 122 % of control
- T/C (dose: 50.0 mg/kg/injection, schedule: Q01DX009 (ip), vehicle: other): 97 % of control and 110 % of control
- T/C (dose: 100.0 mg/kg/injection, schedule: Q01DX009 (ip), vehicle: other): 117 % of control
- T/C (dose: 200.0 mg/kg/injection, schedule: Q01DX009 (ip), vehicle: other): 96 % of control
- T/C (dose: 400.0 mg/kg/injection, schedule: Q01DX009 (ip), vehicle: other): 94 % of control

SMILES: CCOC1=NCCCCCCC1
- T/C [2]: 98 % of control
- T/C [3]: 97 % of control
- T/C [4]: 99 % of control

SMILES: O=C1NCC(COc2ccc(Cl)cc2)O1 (centres undefined)
- T/C [1]: 108 % of control
- T/C [5]: 105 % of control
- T/C [6]: 105 % of control

SMILES: COc1ccc(N=C(c2ccccc2)c2ccccc2)cc1
- T/C [3]: 91 % of control
- T/C (dose: 100.0 mg/kg/injection, schedule: Q04DX003 (ip), vehicle: saline with Tween-80): 92 % of control
- T/C [4]: 108 % of control
- T/C (dose: 200.0 mg/kg/injection, schedule: Q04DX003 (ip), vehicle: saline with Tween-80): 100 % of control
- T/C (dose: 400.0 mg/kg/injection, schedule: Q01DX009 (ip), vehicle: saline with Tween-80): 108 % of control
- T/C (dose: 400.0 mg/kg/injection, schedule: Q04DX003 (ip), vehicle: saline with Tween-80): 96 % of control

SMILES: O=C(CBr)Nc1nccs1
- T/C (dose: 1.56 mg/kg/injection, schedule: Q01DX009 (ip), vehicle: saline): 100 % of control
- T/C (dose: 3.12 mg/kg/injection, schedule: Q04DX003 (ip), vehicle: saline): 95 % of control
- T/C (dose: 6.25 mg/kg/injection, schedule: Q01DX009 (ip), vehicle: saline): 97 % of control
- T/C (dose: 6.25 mg/kg/injection, schedule: Q04DX003 (ip), vehicle: saline): 94 % of control and 102 % of control
- T/C (dose: 12.5 mg/kg/injection, schedule: Q01DX009 (ip), vehicle: saline): 90 % of control
- T/C (dose: 12.5 mg/kg/injection, schedule: Q04DX003 (ip), vehicle: saline): 91 % of control and 97 % of control
- T/C [7]: 97 % of control
- T/C (dose: 25.0 mg/kg/injection, schedule: Q04DX003 (ip), vehicle: saline): 91 % of control and 97 % of control and 100 % of control
- T/C [8]: 104 % of control

SMILES: C=CCSc1nc(N)nc2c1ncn2C1CC(O)C(CO)O1 (centres undefined)
- T/C [7]: 102 % of control
- T/C [8]: 114 % of control and 111 % of control
- T/C (dose: 100.0 mg/kg/injection, schedule: Q01DX009 (ip), vehicle: saline): 123 % of control and 95 % of control
- T/C [9]: 104 % of control
- T/C [4]: 181 % of control
- T/C [10]: 122 % of control and 94 % of control and 100 % of control
- T/C (dose: 300.0 mg/kg/injection, schedule: Q01DX009 (ip), vehicle: saline with Tween-80): 154 % of control
- T/C (dose: 400.0 mg/kg/injection, schedule: Q01DX009 (ip), vehicle: saline): 107 % of control
- T/C (dose: 400.0 mg/kg/injection, schedule: Q04DX003 (ip), vehicle: saline): 99 % of control and 104 % of control

SMILES: CCOC(CN=Cc1ccc(Cl)c(Cl)c1)OCC
- T/C (dose: 100.0 mg/kg/injection, schedule: Q01DX001 (ip), vehicle: Klucel (hydroxypropylcellulose) (HPC)): 100 % of control
- T/C (dose: 200.0 mg/kg/injection, schedule: Q01DX001 (ip), vehicle: Klucel (hydroxypropylcellulose) (HPC)): 100 % of control
- T/C (dose: 400.0 mg/kg/injection, schedule: Q01DX001 (ip), vehicle: Klucel (hydroxypropylcellulose) (HPC)): 95 % of control

SMILES: COc1cc2c(cc1OC)C(NC(C)=O)N(C)c1c-2ccc2cc3c(cc12)OCO3 (centres undefined)
- T/C (dose: 40.0 mg/kg/injection, schedule: Q01DX009 (ip), vehicle: saline): 168 % of control
- T/C (dose: 80.0 mg/kg/injection, schedule: Q01DX009 (ip), vehicle: saline): 104 % of control
- T/C (dose: 120.0 mg/kg/injection, schedule: Q01DX009 (ip), vehicle: saline): 100 % of control

SMILES: C[CH2][Ge]([CH2]C)[CH2]C.C[CH2][Ge]([CH2]C)[CH2]C.C[CH2][Ge]([CH2]C)[O][Ge]([CH2]C)[CH2]C
- T/C [2]: 115 % of control and 116 % of control
- T/C [3]: 112 % of control

SMILES: S=P(NCCNP(=S)(N1CC1)N1CC1)(N1CC1)N1CC1
- T/C (dose: 33.0 mg/kg/injection, schedule: Q04DX003 (ip), vehicle: saline with Tween-80): 121 % of control
- T/C (dose: 50.0 mg/kg/injection, schedule: Q04DX003 (ip), vehicle: saline with Tween-80): 256 % of control
- T/C (dose: 75.0 mg/kg/injection, schedule: Q04DX003 (ip), vehicle: saline with Tween-80): 121 % of control

SMILES: COC(=O)CCC(=O)Nc1ccc(C(=O)CBr)cc1
- T/C (dose: 25.0 mg/kg/injection, schedule: Q04DX003 (ip), vehicle: Klucel (hydroxypropylcellulose) (HPC)): 107 % of control
- T/C (dose: 50.0 mg/kg/injection, schedule: Q04DX003 (ip), vehicle: Klucel (hydroxypropylcellulose) (HPC)): 97 % of control

SMILES: CN(C)C(CCc1ccccc1)C(=O)O (centres undefined)
- T/C [9]: 100 % of control
- T/C [10]: 104 % of control

SMILES: O=C(SCC(NSc1ccccc1[N+](=O)[O-])C(=O)O)c1ccccc1 (centres undefined)
- T/C (dose: 12.0 mg/kg/injection, schedule: Q01DX009 (ip), vehicle: Klucel (hydroxypropylcellulose) (HPC)): 105 % of control
- T/C (dose: 25.0 mg/kg/injection, schedule: Q01DX009 (ip), vehicle: Klucel (hydroxypropylcellulose) (HPC)): 115 % of control
- T/C [1]: 115 % of control
- T/C [5]: 110 % of control
- T/C [6]: 105 % of control

SMILES: COc1cc(NC(C)CCCN)c2ncccc2c1Oc1ccc(Cl)cc1 (centres undefined)
- T/C [2]: 100 % of control
